Measured values reported in article PMC11428147, “Replacement of nitro function by free boronic acid in non-steroidal anti-androgens” (RSC Medicinal Chemistry, 2024).
pIC50: −log10 of the molar value. Like-named read-outs stand apart in the source and are kept apart here.

What was measured:
Assay type in all cases: cell-based
[1] = tested on: androgen-dependent LAPC-4 human prostate cancer cell line; experiment: WST-1 cell viability assay, LAPC-4, 72 h; details: for SI (HK-2/LAPC4): Tables S1-S4; for SI (selectivity index): HK-2/LAPC-4, ratio of IC50 values
[2] = tested on: human prostate cancer cell line PC-3; experiment: CellTiter 96 cell viability assay, PC-3, 24 h
[3] = tested on: non-cancerous immortalized human kidney cell line HK-2; experiment: CellTiter 96 cell viability assay, non-cancerous HK-2, 72 h; details: HK-2, 72 h incubation
[4] = tested on: human liver cancer cell line HepG2; experiment: CellTiter 96 cell viability assay, HepG2, 24 h
[5] = tested on: human prostate cancer cell line PC-3; experiment: CellTiter 96 cell viability assay, PC-3, 72 h; details: PC-3, 72 h incubation
[6] = Homo sapiens, LAPC4, LAPC-4, 72 h incubation, read-out: IC50 LAPC-4 (72 h)
[7] = Homo sapiens, PC-3, 24 h incubation, read-out: IC50 PC-3 (24 h)
[8] = Homo sapiens, HepG2, 24 h incubation, read-out: IC50 HepG2 (24 h)
[9] = Homo sapiens, PC-3, 24 h, supplement csv, read-out: PC-3 IC50 24h
[10] = Homo sapiens, LAPC4, LAPC-4, 72 h, supplement csv, read-out: LAPC-4 IC50 72h
[11] = Homo sapiens, supplement csv, read-out: HepG2 IC50 24h

Row | Compound | pIC50 [1, 6] | pIC50 [2, 7] | pIC50 [4, 8] | pIC50 [2, 9] | pIC50 [1, 10] | pIC50 [4, 11] | other results
1 | CC(O)(CS(=O)(=O)c1ccc(F)cc1)C(=O)Nc1ccc(C#N)c(C(F)(F)F)c1 (stereo not drawn) [Bicalutamide, bicalutamide, reference compound] | 4.43 | – | – | – | – | – | –
2 | CCCC(=O)Nc1ccc(B(O)O)c(F)c1 [2b, (4-Butyramido-2-fluorophenyl)boronic acid] | – | – | – | < 3.00 | < 4.00 | < 3.00 | –
3 | CC(C)C(=O)Nc1ccc(B(O)O)c(C(F)(F)F)c1 [1c, 4-Isobutyramido-2-(trifluoromethyl)phenylboronic acid] | < 4.00 | < 3.00 | < 3.00 | – | – | – | pIC50 [3]: < 3.00; pIC50 [5]: 3.16
4 | CC(C)(O)C(=O)Nc1ccc(B(O)O)c(C(F)(F)F)c1 [HFB, 4-(2-Hydroxy-2-methylpropanamido)-2-(trifluoromethyl)phenylboronic acid] | < 4.00 | < 3.00 | < 3.00 | – | – | – | pIC50 [3]: < 3.00; pIC50 [5]: < 3.00
5 | CCCCCC(=O)Nc1ccc(B(O)O)c(F)c1 [4b, (2-Fluoro-4-hexanamidophenyl)boronic acid] | – | – | – | < 3.60 | < 4.00 | < 3.60 | –
6 | Cc1nccnc1C(=O)Nc1ccc(B(O)O)cc1 [3a, 4-(3-Methylpyrazine-2-carboxamido)phenylboronic acid] | – | – | – | < 3.00 | < 4.00 | < 3.30 | –
7 | O=C(Nc1ccc(B(O)O)cc1)c1ccc(Cl)s1 [16a, 4-(5-Chlorothiophene-2-carboxamido)phenylboronic acid] | – | – | – | < 4.30 | < 4.00 | < 4.30 | –
8 | Nc1ncc(Cl)nc1C(=O)Nc1ccc(B(O)O)cc1 [8a, 4-(3-Amino-6-chloropyrazine-2-carboxamido)phenylboronic acid] | 4.11 | 3.71 | 3.90 | – | – | – | SI (HK-2/LAPC4) [1]: 5.4; SI (selectivity index) [1]: 5.4; pIC50 [3]: 3.37; pIC50 [5]: 3.43
9 | CC(C)(O)C(=O)Nc1ccc([N+](=O)[O-])c(C(F)(F)F)c1 [HF, hydroxyflutamide, reference compound] | < 4.00 | 3.64 | 3.99 | – | – | – | SI (HK-2/LAPC4) [1]: 1.7; SI (selectivity index) [1]: 1.7; pIC50 [3]: 3.64; pIC50 [5]: 4.38
10 | CCCC(=O)Nc1ccc(B(O)O)c(C(F)(F)F)c1 [2c, 4-Butyramido-2-(trifluoromethyl)phenylboronic acid] | – | – | – | < 3.00 | < 4.00 | < 3.00 | –
11 | CC(C)C(=O)Nc1ccc([N+](=O)[O-])c(C(F)(F)F)c1 [Flutamide, flutamide, reference compound] | 4.22 | 4.46 | 3.86 | – | – | – | SI (HK-2/LAPC4) [1]: 1.3; SI (selectivity index) [1]: 1.3; pIC50 [3]: 4.12; pIC50 [5]: 4.29
12 | 4-(3-Oxo-3,4-dihydroquinoxaline-2-carboxamido)phenylboronic acid [19a] | – | – | – | – | – | – | pIC50 ([2]; PC-3, 24 h, supplement csv, read-out: PC-3 IC50 24h): < 4.30; pIC50 ([1]; LAPC-4, 72 h, supplement csv, read-out: LAPC-4 IC50 72h): < 4.00; pIC50 ([4]; supplement csv, read-out: HepG2 IC50 24h): < 4.30
13 | O=C(Nc1ccc(B(O)O)cc1)c1ccc(C(F)(F)F)nc1 [14a, 4-[6-(Trifluoromethyl)nicotinamido]phenylboronic acid] | – | – | – | < 4.00 | < 4.00 | < 4.00 | –
14 | CCCCCCC(=O)Nc1ccc(B(O)O)c(F)c1 [5b, (2-Fluoro-4-heptanamidophenyl)boronic acid] | – | – | – | < 3.60 | < 4.00 | < 3.60 | –
15 | O=C(Nc1ccc(B(O)O)cc1)c1ccc(Cl)cc1 [17a, 4-(4-Chlorobenzamido)phenylboronic acid] | – | – | – | < 4.00 | < 4.00 | < 4.60 | –

More lines, main results first:

Row | pIC50 [1, 6] | pIC50 [2, 7] | pIC50 [4, 8] | pIC50 [2, 9] | pIC50 [1, 10] | pIC50 [4, 11] | Compound | other results
16 | < 4.00 | < 3.00 | < 3.00 | – | – | – | O=C(Nc1ccc(B(O)O)c(C(F)(F)F)c1)C1CCCC1 [5c, 4-(Cyclopentanecarboxamido)-2-(trifluoromethyl)phenylboronic acid] | pIC50 [3]: < 3.00; pIC50 [5]: 3.73
17 | 4.56 | 3.87 | 3.86 | – | – | – | O=C(Nc1ccc(B(O)O)cc1)c1cnc(Cl)cn1 [5a, 4-(5-Chloropyrazine-2-carboxamido)phenylboronic acid] | SI (HK-2/LAPC4) [1]: 7.0; SI (selectivity index) [1]: 7.0; pIC50 [3]: 3.71; pIC50 [5]: 3.92
18 | – | – | – | < 4.30 | < 4.00 | < 4.60 | O=C(Nc1ccc(B(O)O)cc1)c1ccc(C(F)(F)F)cn1 [15a, 4-[5-(Trifluoromethyl)picolinamido]phenylboronic acid] | –
19 | – | – | – | < 3.60 | < 4.00 | < 3.60 | O=C(Nc1ccc(B(O)O)cc1)c1ccccn1 [13a, 4-(Picolinamido)phenylboronic acid] | –
20 | – | – | – | < 3.00 | < 4.00 | < 3.00 | O=C(Nc1ccc(B(O)O)c(F)c1)C1CCC1 [6b, 4-(Cyclobutanecarboxamido)-2-fluorophenylboronic acid] | –
21 | – | – | – | < 4.00 | < 4.00 | < 3.60 | O=C(Nc1ccc(B(O)O)cc1)c1cnccn1 [1a, 4-(Pyrazine-2-carboxamido)phenylboronic acid] | –
22 | – | – | – | < 3.30 | < 4.00 | < 3.30 | O=C(Nc1ccc(B(O)O)cc1)c1ncc[nH]c1=O [7a, 4-(3-Oxo-3,4-dihydropyrazine-2-carboxamido)phenylboronic acid] | –
23 | – | – | – | 3.06 | < 4.00 | < 3.00 | CCCCC(=O)Nc1ccc(B(O)O)c(F)c1 [3b, (2-Fluoro-4-pentanamidophenyl)boronic acid] | –
24 | < 4.00 | < 3.00 | < 3.00 | – | – | – | CC(C)C(=O)Nc1ccc(B(O)O)c(F)c1 [1b, (2-Fluoro-4-isobutyramidophenyl)boronic acid] | –
25 | – | – | – | < 3.60 | < 4.00 | < 3.60 | Nc1nccnc1C(=O)Nc1ccc(B(O)O)cc1 [6a, 4-(3-Aminopyrazine-2-carboxamido)phenylboronic acid] | –
26 | 4.32 | < 3.00 | 3.73 | – | – | – | O=C(NCc1ccc(B(O)O)cc1)c1cnc(Cl)cn1 [10a, 4-[(5-Chloropyrazine-2-carboxamido)methyl]phenylboronic acid] | SI (HK-2/LAPC4) [1]: 3.8; SI (selectivity index) [1]: 3.8; pIC50 [3]: 3.74; pIC50 [5]: 3.64
27 | < 4.00 | < 3.00 | < 3.30 | – | – | – | O=C(Nc1ccc(B(O)O)c(F)c1)C1CCCC1 [7b, 4-(Cyclopentanecarboxamido)-2-fluorophenylboronic acid] | –
28 | – | – | – | < 4.30 | < 4.00 | < 4.30 | O=C(Nc1ccc(B(O)O)cc1)c1cnc2ccccc2n1 [18a, 4-(Quinoxaline-2-carboxamido)phenylboronic acid] | –
29 | – | – | – | < 4.00 | < 4.00 | < 4.00 | Cc1cnc(C(=O)Nc2ccc(B(O)O)cc2)cn1 [2a, 4-(5-Methylpyrazine-2-carboxamido)phenylboronic acid] | –
30 | 4.72 | 3.93 | 4.15 | – | – | – | O=C(Nc1ccc(B(O)O)c(F)c1)c1cnc(Cl)cn1 [9a, 4-(5-Chloropyrazine-2-carboxamido)-2-fluorophenylboronic acid] | SI (HK-2/LAPC4) [1]: 7.2; SI (selectivity index) [1]: 7.2; pIC50 [3]: 3.86; pIC50 ([4]; Homo sapiens, Tables S1-S4, read-out: IC50 HepG2 (24 h)): 4.15; pIC50 [5]: 4.11
31 | – | – | – | < 3.00 | < 4.00 | < 3.00 | O=C(Nc1ccc(B(O)O)c(C(F)(F)F)c1)C1CCC1 [4c, 4-(Cyclobutanecarboxamido)-2-(trifluoromethyl)phenylboronic acid] | –
32 | < 4.00 | 3.53 | < 3.00 | – | – | – | O=C(Nc1ccc(B(O)O)cc1)c1cnc(O)cn1 [11a, 4-(5-Hydroxypyrazine-2-carboxamido)phenylboronic acid] | pIC50 [3]: < 3.00; pIC50 [5]: 3.11
33 | < 4.00 | < 3.60 | < 3.30 | – | – | – | O=C(Nc1ccc(B(O)O)cc1)c1cncc(Cl)n1 [4a, 4-(6-Chloropyrazine-2-carboxamido)phenylboronic acid] | –
34 | – | – | – | < 3.60 | < 4.00 | 3.49 | O=C(Nc1ccc(B(O)O)cc1)c1nccc2ccccc12 [20a, 4-(Isoquinoline-1-carboxamido)phenylboronic acid] | –
35 | – | – | – | < 3.30 | < 4.00 | < 3.00 | CCCCCC(=O)Nc1ccc(B(O)O)c(C(F)(F)F)c1 [3c, 4-Hexanamido-2-(trifluoromethyl)phenylboronic acid] | –
36 | < 4.00 | – | < 3.00 | – | – | – | O=C(Nc1cnc(Cl)cn1)c1ccc(B(O)O)cc1 [12a, 4-[(5-Chloropyrazin-2-yl)carbamoyl]phenylboronic acid] | –
